Assays:
human LXRα = target: T1, human LXRα (Homo sapiens, UniProt Q13133); experiment: Ligand-binding test procedure for human LXRα (3H T0901317 tracer, flash plates); settings: biotinylated hLXRα from E. coli extract; tracer 3H T0901317
T1 construct: biotin (biotinylated); made in house; host or cells: E. coli (crude extract)
T1 sequence (Q13133 1-447): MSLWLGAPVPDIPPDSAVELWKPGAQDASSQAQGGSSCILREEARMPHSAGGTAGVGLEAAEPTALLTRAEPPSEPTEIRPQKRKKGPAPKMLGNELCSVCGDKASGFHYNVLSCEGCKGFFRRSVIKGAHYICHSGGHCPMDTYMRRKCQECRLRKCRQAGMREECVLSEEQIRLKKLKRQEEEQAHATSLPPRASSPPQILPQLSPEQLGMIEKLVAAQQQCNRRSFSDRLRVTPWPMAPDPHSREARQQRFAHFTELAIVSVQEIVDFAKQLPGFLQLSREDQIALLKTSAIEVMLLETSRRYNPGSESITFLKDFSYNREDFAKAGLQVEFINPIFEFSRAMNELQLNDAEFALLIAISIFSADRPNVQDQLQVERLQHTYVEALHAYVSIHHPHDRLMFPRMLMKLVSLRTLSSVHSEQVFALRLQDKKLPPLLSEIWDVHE
Method: II. Ligand-Binding Test Procedure for Human LXRα.
Receptor source: E. coli extract from cells expressing biotinylated hLXRα. Extract was made in a similar buffer as above, but with 50 mM TRIS.
(§1) Washed streptavidin and coated flash plates with wash buffer. Diluted receptor extract to give Bmax ˜4000 cpm and add to the wells. Wrapped the plates in aluminum foil and stored them at +4° C. over night.
(§2) Made a dilution series in DMSO of the test ligands. Made a 5 nM solution of the radioactive tracer in buffer. Mixed 250 μl diluted tracer with 5 μl of the test ligand from each concentration of the dilution series. Washed the receptor-coated flash plates. Added 200 μl per well of the ligand/radiolabel mixture to the receptor-coated flash plates. Wrapped the plates in aluminum foil and incubate at +4° C. over night.
(§3) Aspirated wells, and wash the flashed plates. Sealed the plate. Measured the remaining radioactivity in the plate.

human LXRβ = target: T2, human LXRβ (Homo sapiens, UniProt P55055); experiment: Ligand-binding test procedure for human LXRβ (3H T0901317 tracer, flash plates); settings: biotinylated hLXRβ from E. coli extract; tracer 3H T0901317
T2 construct: biotin (biotinylated); made in house; host or cells: E. coli (crude extract)
T2 sequence (P55055 1-460): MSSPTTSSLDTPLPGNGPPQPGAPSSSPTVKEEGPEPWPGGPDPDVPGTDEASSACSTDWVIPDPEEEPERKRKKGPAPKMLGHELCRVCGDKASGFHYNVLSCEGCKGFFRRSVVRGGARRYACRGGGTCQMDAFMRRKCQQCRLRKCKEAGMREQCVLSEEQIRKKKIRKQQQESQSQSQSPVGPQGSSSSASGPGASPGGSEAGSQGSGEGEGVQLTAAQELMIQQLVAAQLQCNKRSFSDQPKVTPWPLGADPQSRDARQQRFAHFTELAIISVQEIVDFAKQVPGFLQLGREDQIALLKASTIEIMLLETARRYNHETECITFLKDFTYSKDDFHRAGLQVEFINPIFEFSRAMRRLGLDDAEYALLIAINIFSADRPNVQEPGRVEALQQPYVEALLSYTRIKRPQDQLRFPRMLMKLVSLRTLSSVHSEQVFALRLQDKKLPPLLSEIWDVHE
Method: I. Ligand-Binding Test Procedure for Human LXRβ.
Receptor source: E. coli extract from cells expressing biotinylated hLXRβ. Extract was made in a similar buffer as above, but with 50 mM TRIS.
as §1, §2, §3

Row | Compound | IC50 (human LXRα) [µM] | IC50 (human LXRβ) [µM]
1 | CS(=O)(=O)c1cccc(Oc2cccc(-c3c(Cl)nc4c(C(F)(F)F)cccn34)c2)c1 [Example 85, 2-chloro-3-{3-[3-(methylsulfonyl)phenoxy]phenyl}-8-(trifluoromethyl)imidazo[1,2-a]pyridine] | 2.75 | 0.083
2 | CCS(=O)(=O)c1cccc(Oc2cccc(-c3c(C(C)(C)C)nc4c(C(F)(F)F)cccn34)c2)c1 [Example 76, 2-tert-butyl-3-{3-[3-(ethylsulfonyl)phenoxy]phenyl}-8-(trifluoromethyl)imidazo[1,2-a]pyridine] | 0.135 | 0.0056
3 | CCc1nc2c(C#N)cccn2c1-c1cccc(OCc2cccc(S(C)(=O)=O)c2)c1 [Example 54, 2-ethyl-3-(3-{[3-(methylsulfonyl)benzyl]oxy}phenyl)imidazo[1,2-a]pyridine-8-carbonitrile] | 41.1 | 3.06
4 | CC(C)(C)c1nc2c(C#N)cccn2c1-c1cccc(Oc2cccc(CS(C)(=O)=O)c2)c1 [Example 116, 2-tert-butyl-3-(3-{3-[(methylsulfonyl)methyl]phenoxy}phenyl)imidazo[1,2-a]pyridine-8-carbonitrile] | > 1 | 0.97
5 | CC(C)c1nc2c(C(F)(F)F)cccn2c1-c1cccc(Oc2cccc(S(C)(=O)=O)c2)n1 [Example 89, 2-isopropyl-3-{6-[3-(methylsulfonyl)phenoxy]pyridin-2-yl}-8-(trifluoromethyl)imidazo[1,2-a]pyridine] | > 1 | > 1
6 | CC(C)c1nc2c(C#N)cccn2c1-c1cccc(Oc2cccc(CS(C)(=O)=O)c2)c1 [Example 115, 2-isopropyl-3-(3-{3-[(methylsulfonyl)methyl]phenoxy}phenyl)imidazo[1,2-a]pyridine-8-carbonitrile] | > 1 | > 1
7 | CC(C)c1nc2c(Cl)cccn2c1-c1cccc(Oc2ccc(S(N)(=O)=O)cc2)c1 [Example 99, 4-[3-(8-chloro-2-isopropylimidazo[1,2-a]pyridin-3-yl)phenoxy]benzenesulfonamide] | > 1 | > 1
8 | CC(C)c1nc2c(C(F)(F)F)cccn2c1-c1cccc(Oc2cccc(S(=O)(=O)C(C)C)c2)c1 [Example 27, 2-isopropyl-3-(3-(3-(isopropylsulfonyl)phenoxy)phenyl)-8-(trifluoromethyl)imidazo[1,2-a]pyridine] | 0.144 | 0.008
9 | CCc1nc2c(C#N)cccn2c1-c1cccc(Oc2cccc(CS(C)(=O)=O)c2)c1 [Example 118, 2-ethyl-3-(3-{3-[(methylsulfonyl)methyl]phenoxy}phenyl)imidazo[1,2-a]pyridine-8-carbonitrile] | > 1 | > 1
10 | CCC(C)S(=O)(=O)c1ccc(Oc2cccc(-c3c(C)nc4c(C(F)(F)F)cccn34)c2)cc1 (stereo not drawn) [Example 16, 3-{3-[4-(sec-butylsulfonyl)phenoxy]phenyl}-2-methyl-8-(trifluoromethyl)imidazo[1,2-a]pyridine] | 4.77 | 0.508
11 | CC(C)c1nc2c(C(F)(F)F)cccn2c1-c1ccc(-c2ccc(S(C)(=O)=O)cc2)cc1 [Example 94, 2-isopropyl-3-(4′-(methylsulfonyl)biphenyl-4-yl)-8-(trifluoromethyl)imidazo[1,2-a]pyridine] | > 1 | > 1
12 | CCS(=O)(=O)c1cccc(Oc2cccc(-c3c(C(C)C)nc4c(C(F)(F)F)cccn34)c2)c1 [Example 26, 2-isopropyl-3-(3-(3-(ethylsulfonyl)phenoxy)phenyl)-8-(trifluoromethyl)imidazo[1,2-a]pyridine] | 0.221 | 0.005
13 | CCc1nc2c(C#N)cccn2c1-c1cccc(Oc2cccc(S(N)(=O)=O)c2)c1 [Example 50, 3-[3-(8-cyano-2-ethylimidazo[1,2-a]pyridin-3-yl)phenoxy]benzenesulfonamide] | 14.7 | 0.94
14 | CN(C)Cc1nc2c(C(F)(F)F)cccn2c1-c1cccc(Oc2cccc(S(C)(=O)=O)c2)c1 [Example 137, N,N-dimethyl-1-[3-{3-[3-(methylsulfonyl)phenoxy]phenyl}-8-(trifluoromethyl)imidazo[1,2-a]pyridin-2-yl]methanamine] | > 1 | > 1
15 | CCc1nc2c(C(F)(F)F)cccn2c1-c1ccc(COc2cccc(S(C)(=O)=O)c2)cc1 [Example 111, 2-ethyl-3-(4-{[3-(methylsulfonyl)phenoxy]methyl}phenyl)-8-(trifluoromethyl)imidazo[1,2-a]pyridine] | > 1 | > 1
16 | CCc1nc2c(Cl)cccn2c1-c1cccc(Oc2cccc(S(N)(=O)=O)c2)c1 [Example 47, 3-[3-(8-chloro-2-ethylimidazo[1,2-a]pyridin-3-yl)phenoxy]benzenesulfonamide] | 2.14 | 0.151
17 | CCc1nc2c(C(F)(F)F)cccn2c1-c1ccc(Oc2cccc(S(C)(=O)=O)c2)cc1 [Example 102, 2-ethyl-3-{4-[3-(methylsulfonyl)phenoxy]phenyl}-8-(trifluoromethyl)imidazo[1,2-a]pyridine] | > 1 | 0.336
18 | CCc1nc2c(Cl)cccn2c1-c1ccc(Oc2cccc(S(=O)(=O)CC)c2)cc1 [Example 106, 8-chloro-2-ethyl-3-{4-[3-(ethylsulfonyl)phenoxy]phenyl}imidazo[1,2-a]pyridine] | > 1 | 0.43
19 | CCc1nc2c(C(F)(F)F)cccn2c1-c1ccc(-c2ccc(S(=O)(=O)C(C)C)cc2)cc1 [Example 92, 2-ethyl-3-(4′-(isopropylsulfonyl)biphenyl-4-yl)-8-(trifluoromethyl)imidazo[1,2-a]pyridine] | > 1 | 1.59
20 | CC(C)S(=O)(=O)c1cccc(Oc2cccc(-c3c(C(C)(C)C)nc4c(C#N)cccn34)c2)c1 [Example 80, 2-tert-butyl-3-{3-[3-(isopropylsulfonyl)phenoxy]phenyl}imidazo[1,2-a]pyridine-8-carbonitrile] | 0.526 | 0.0163
21 | CCc1nc2c(Cl)cccn2c1-c1cccc(COc2cccc(S(C)(=O)=O)c2)c1 [Example 109, 8-chloro-2-ethyl-3-(3-{[3-(methylsulfonyl)phenoxy]methyl}phenyl)imidazo[1,2-a]pyridine] | > 1 | 0.268
22 | CC(C)c1nc2c(C#N)cccn2c1-c1cccc(OCc2cccc(S(C)(=O)=O)c2)c1 [Example 55, 2-isopropyl-3-(3-{[3-(methylsulfonyl)benzyl]oxy}phenyl)imidazo[1,2-a]pyridine-8-carbonitrile] | 28.5 | 1.1
23 | CCc1nc2c(C#N)cccn2c1-c1cccc(Oc2cccc(S(C)(=O)=O)c2)c1 [Example 69, 2-ethyl-3-{3-[3-(methylsulfonyl)phenoxy]phenyl}imidazo[1,2-a]pyridine-8-carbonitrile] | 2.7 | 0.161
24 | CC(C)c1nc2c(Cl)cccn2c1-c1cccc(OCc2ccc(S(C)(=O)=O)cc2)c1 [Example 57, 8-chloro-2-isopropyl-3-(3-{[4-(methylsulfonyl)benzyl]oxy}phenyl)imidazo[1,2-a]pyridine] | > 1 | 8.43
25 | CC(C)c1nc2c(Cl)cccn2c1-c1cccc(Oc2cccc(CS(C)(=O)=O)c2)c1 [Example 117, 8-chloro-2-isopropyl-3-(3-{3-[(methylsulfonyl)methyl]phenoxy}phenyl)imidazo[1,2-a]pyridine] | > 1 | 0.46
26 | CCc1nc2c(C(F)(F)F)cccn2c1-c1cccc(Oc2ccc(C#N)c(S(C)(=O)=O)c2)c1 [Example 141, 4-{3-[2-ethyl-8-(trifluoromethyl)imidazo[1,2-a]pyridin-3-yl]phenoxy}-2-(methylsulfonyl)benzonitrile] | > 1 | 0.7
27 | CCc1nc2c(Cl)cccn2c1-c1ccc(Oc2cccc(S(C)(=O)=O)c2)cc1 [Example 103, 8-chloro-2-ethyl-3-{4-[3-(methylsulfonyl)phenoxy]phenyl}imidazo[1,2-a]pyridine] | > 1 | 0.417

Source: patent publication US20110112135A1, “Imidazo [1,2-A] Pyridine Compounds” (priority 2007, published 2011)
